The text below walks through data of patent US7569601B2, “Cycloalkylidene compounds as modulators of estrogen receptor” (SmithKline Beecham Corporation, priority 2003, dated 2009).

A word on the melting point: it is the temperature of the solid-liquid transition. `CC1(C)CC(=C(c2ccc(O)cc2)c2ccc(/C=C/C(=O)O)cc2)CC(C)(C)C1` [Example 6, (2E)-3-{4-[(4-Hydroxyphenyl)(3,3,5,5-tetramethylcyclohexylidene)methyl]phenyl}-2-propenoic acid]: the melting point fell in the range of 219 to 220 °C.
Consider `CC(=O)Nc1ccc(C(=C2CC(C)(C)CC(C)(C)C2)c2ccc(O)cc2)cc1` [Example 21, N-{4-[(4-hydroxyphenyl)(3,3,5,5-tetramethylcyclohexylidene)methyl]phenyl}acetamide], for which the melting point fell in the range of 118 to 121 °C.
Take `CC1(C)CC(=C(c2ccc(O)cc2)c2ccc(OCCOCCO)cc2)CC(C)(C)C1` [Example 23, 4-[[4-({2-[(2-Hydroxyethyl)oxy]ethyl}oxy)phenyl](3,3,5,5-tetramethylcyclohexylidene)methyl]phenol]: the melting point lay within 122 to 124 °C.
To `CC1(C)CC(=C(c2ccc(O)cc2)c2ccc(S(C)(=O)=O)cc2)CC(C)(C)C1` [Example 30, 4-[[4-(Methylsulfonyl)phenyl](3,3,5,5 tetramethylcyclohexylidene)methyl]phenol] belongs 149 to 150 °C.
Molecule `CC1(C)CC(=C(c2ccc(O)cc2)c2ccc(C(N)=O)cc2)CC(C)(C)C1` [Example 31, 4-[(4-hydroxyphenyl)(3,3,5,5-tetramethylcyclohexylidene)methyl]benzamide] had a melting point of 209 to 210 °C.
Turning to `CC1(C)CC(=C(c2ccc(O)cc2)c2ccc(OCCO)cc2)CC(C)(C)C1` [Example 32, 4-[{4-[(2-Hydroxyethyl)oxy]phenyl}(3,3,5,5-tetramethylcyclohexylidene)methyl]phenol], the melting point lay within 154 to 155 °C.
In the case of `O=C(O)/C=C/c1ccc(C(=C2CCCCCC2)c2ccc(O)c(Cl)c2)cc1` [Example 42, (2E)-3-{4-[(3-Chloro-4-hydroxyphenyl)(cycloheptylidene)methyl]phenyl}-2-propenoic acid], the melting point is 155 to 156 °C.
For the molecule `CC1(C)CC(=C(c2ccc(/C=C/C(=O)O)cc2)c2ccc(O)c(Cl)c2)CC(C)(C)C1` [Example 43, (2E)-3-{4-[(3-Chloro-4-hydroxyphenyl)(3,3,5,5-tetramethylcyclohexylidene)methyl]phenyl}-2-propenoic acid], the melting point is 111 to 114 °C.
The molecule `CC1(C)CC(=C(c2ccc(/C=C/C(=O)O)cc2)c2ccc(O)c(Cl)c2)CC(C)(C)O1` [Example 44, (2E)-3-{4-[(3-Chloro-4-hydroxyphenyl)(2,2,6,6-tetramethyltetrahydro-4H-pyran-4-ylidene)methyl]phenyl}-2-propenoic acid] displayed a melting point of 118 to 121 °C.
`O=C(O)/C=C/c1ccc(C(=C2CCCCCC2)c2ccc(O)c(F)c2)cc1` [Example 45, (2E)-3-{4-[(3-fluoro-4-hydroxyphenyl)(cycloheptylidene)methyl]phenyl}-2-propenoic acid] gave a melting point of 164 to 165 °C.
Take `CC1(C)CC(=C(c2ccc(/C=C/C(=O)O)cc2)c2ccc(O)c(F)c2)CC(C)(C)O1` [Example 46, (2E)-3-{4-[(3-fluoro-4-hydroxyphenyl)(2,2,6,6-tetramethyltetrahydro-4H-pyran-4-ylidene)methyl]phenyl}-2-propenoic acid]: the melting point lay within 125 to 128 °C.
For `CC1(C)CC(=C(c2ccc(/C=C/C(=O)O)cc2)c2ccc(O)c(F)c2)CC(C)(C)C1` [Example 47, (2E)-3-{4-[(3-fluoro-4-hydroxyphenyl)(3,3,5,5-tetramethylcyclohexylidene)methyl]phenyl}-2-propenoic acid], the melting point lay within 193 to 195 °C.
The molecule `CC1(C)CC(=C(c2ccc(O)cc2)c2ccc(C#CCO)cc2)CC(C)(C)C1` [Example 48, 4-[[4-(3-hydroxy-1-propyn-1-yl)phenyl](3,3,5,5-tetramethylcyclohexylidene)methyl]phenol] displayed a melting point of 141 to 142 °C.
Molecule `C#Cc1ccc(C(=C2CC(C)(C)CC(C)(C)C2)c2ccc(O)cc2)cc1` [Example 49, 4-[(4-Ethynylphenyl)(3,3,5,5-tetramethylcyclohexylidene)methyl]phenol] came in with a melting point of 138 to 139 °C.
The molecule `CC1(C)CC(=C(c2ccc(O)cc2)c2ccc(CC(=O)O)cc2)CC(C)(C)C1` [Example 51, {4-[(4-Hydroxyphenyl)(3,3,5,5-tetramethylcyclohexylidene)methyl]phenyl}acetic acid] came in with a melting point of 220 to 221 °C.
In turn, `CC1(C)CC(=C(c2ccc(O)cc2)c2ccc(CCC(=O)O)cc2)CC(C)(C)C1` [Example 61, 3-{4-[(4-Hydroxyphenyl)(3,3,5,5-tetramethylcyclohexylidene)methyl]phenyl}propanoic acid] had a melting point of 243 to 244 °C.
The molecule `O=C(O)COc1ccc(C(=C2CCCCCC2)c2ccc(O)cc2)cc1` [Example 68, ({4-[Cycloheptylidene(4-hydroxyphenyl)methyl]phenyl}oxy)acetic acid] showed a melting point of 170 to 171 °C.
`N#Cc1ccc(C(=C2CCCCCC2)c2ccc(O)cc2)cc1` [Example 77, 4-[cycloheptylidene(4-hydroxyphenyl)methyl]benzonitrile]: the melting point lay in the range of 110 to 111 °C.
`CC1(C)CC(=C(c2ccc(O)cc2)c2ccc(OCC(=O)O)cc2)CC(C)(C)C1` [Example 83, ({4-[(4-Hydroxyphenyl)(3,3,5,5-tetramethylcyclohexylidene)methyl]phenyl}oxy)acetic acid] yielded a melting point of 163 to 164 °C.
In turn, `CC1(C)CC(=C(c2ccc(O)cc2)c2ccc(OCCCC(=O)O)cc2)CC(C)(C)C1` [Example 84, 4-({4-[(4-hydroxyphenyl)(3,3,5,5-tetramethylcyclohexylidene)methyl]phenyl}oxy)butanoic acid] had a melting point of 203 to 204 °C.
`CC1(C)CC(=C(c2ccc(O)cc2)c2ccc(CO)cc2)CC(C)(C)C1` [Example 91, 4-[[4-(Hydroxymethyl)phenyl](3,3,5,5-tetramethylcyclohexylidene)methyl]phenol] returned a melting point of 134 to 135 °C.
With `CC1(C)CC(=C(c2ccc(O)cc2)c2ccc(CCO)cc2)CC(C)(C)C1` [Example 92, 4-[[4-(2-Hydroxyethyl)phenyl](3,3,5,5-tetramethylcyclohexylidene)methyl]phenol], the melting point was in the range of 159 to 160 °C.
`CC1(C)CC(=C(c2ccc(O)cc2)c2ccc(CCCO)cc2)CC(C)(C)C1` [Example 93, 4-[[4-(3-Hydroxypropyl)phenyl](3,3,5,5-tetramethylcyclohexylidene)methyl]phenol] yielded a melting point of 160 to 161 °C.
As for `CC1(C)CC(=C(c2ccc(O)cc2)c2ccc(-c3ccoc3)cc2)CC(C)(C)C1` [Example 94, 4-[[4-(3-furanyl)phenyl](3,3,5,5-tetramethylcyclohexylidene)methyl]phenol], the melting point was in the range of 128 to 129 °C.
On to `OCCCC#Cc1ccc(C(=C2CCCCCC2)c2ccc(O)cc2)cc1` [Example 100, 4-{Cycloheptylidene[4-(5-hydroxy-1-pentyn-1-yl)phenyl]methyl}phenol], for which the melting point was in the range of 125 to 126 °C.
The value for `CC(C)(O)C#Cc1ccc(C(=C2CC(C)(C)CC(C)(C)C2)c2ccc(O)cc2)cc1` [Example 101, 4-[[4-(3-hydroxy-3-methyl-1-butyn-1-yl)phenyl](3,3,5,5-tetramethylcyclohexylidene)methyl]phenol] was 186 to 187 °C.
In turn, `CC1(C)CC(=C(c2ccc(O)cc2)c2ccc(C#CCCO)cc2)CC(C)(C)C1` [Example 102, 4-[[4-(4-hydroxy-1-butyn-1-yl)phenyl](3,3,5,5-tetramethylcyclohexylidene)methyl]phenol] gave a melting point of 183 to 184 °C.
In turn, `CC1(C)CC(=C(c2ccc(O)cc2)c2ccc(C#CCCC(=O)O)cc2)CC(C)(C)C1` [Example 103, 5-{4-[(4-Hydroxyphenyl)(3,3,5,5-tetramethylcyclohexylidene)methyl]phenyl}-4-pentynoic acid] had a melting point of 233 to 234 °C.
As to `CC(=O)c1ccc(C(=C2CC(C)(C)CC(C)(C)C2)c2ccc(O)cc2)cc1` [Example 104, 1-{4-[(4-Hydroxyphenyl)(3,3,5,5-tetramethylcyclohexylidene)methyl]phenyl}ethanone], the melting point lay within 195 to 196 °C.
`CC1(C)CC(=C(c2ccc(O)cc2)c2ccc(-c3ccc(CO)cc3)cc2)CC(C)(C)C1` [Example 105, 4-[[4′-(Hydroxymethyl)-4-biphenylyl](3,3,5,5-tetramethylcyclohexylidene)methyl]phenol] showed a melting point of 222 to 223 °C.
The molecule `CC1(C)CC(=C(c2ccc(O)cc2)c2ccc(-c3cccc(CO)c3)cc2)CC(C)(C)C1` [Example 106, 4-[[3′-(Hydroxymethyl)-4-biphenylyl](3,3,5,5-tetramethylcyclohexylidene)methyl]phenol] showed a melting point of 197 to 198 °C.
For `CC1(C)CC(=C(c2ccc(O)cc2)c2ccc(-c3ccccc3C(=O)O)cc2)CC(C)(C)C1` [Example 107, 4′-[(4-Hydroxyphenyl)(3,3,5,5-tetramethylcyclohexylidene)methyl]-2-biphenylcarboxylic acid], the melting point was in the range of 230 to 231 °C.
To `CC1(C)CC(=C(c2ccc(O)cc2)c2ccc(-c3ccccc3CO)cc2)CC(C)(C)C1` [Example 108, 4-[[2′-(Hydroxymethyl)-4-biphenylyl](3,3,5,5-tetramethylcyclohexylidene)methyl]phenol] belongs 171 to 172 °C.
